The record followed here is patent US12187721B2, “Protein tyrosine phosphatase inhibitors” (Array BioPharma Inc., priority 2018, dated 2025).

Where a name gives a salt, the structure may show the parent alone. Read-outs that look alike come from different tables or passages of the source.

The target of this assay is T1, full-length SHP2 (His6-tagged SHP2(2-527)) (Homo sapiens, UniProt Q06124).
T1 construct: His6-tagged SHP2(2-527); His6; made in house; host or cells: E. coli
The assay can be described thus: SHP2 Enzymatic Assay (fluorescence intensity kinetic assay, DiFMUP hydrolysis). Format: biochemical. Here is the method:
A fluorescence intensity kinetic assay was configured for full-length SHP2 that monitors the amount of 6,8-difluoro-7-hydroxy-4-methylcoumarin (“DiFMU”) formed upon hydrolysis of 6,8-difluoro-4-methylumbelliferyl phosphate (“DiFMUP”) by SHP2. Assay mixtures consisted of 25 mM K^+HEPES, pH 7.4, 0.01% Triton X-100, 1 mM DTT, 50 mM KCl, 100 μg/mL bovine γ-globulin, 50 μM DiFMUP, 1 μM SHP2 activating peptide (LN(pY)IDLDLV(dPEG8)LST(pY)ASINFQK-amide), 1 nM full-length SHP2 (His6-tagged SHP2(2-527), recombinantly expressed in E. coli and purified in-house) and 2% dimethylsulfoxide (“DMSO”) (from compound). […] The assay was run in 384-well, polystyrene, low-volume, non-treated, black microtiter plates (Costar 4511) in a final volume of 20 μL. Low control wells lacked enzyme. The assays were initiated by the addition of a mixture of SHP2 and the activating peptide, and following a 15 second mix on an orbital shaker, were read in kinetic mode for 15 minutes (30 seconds/cycle) at ambient temperature on a PerkinElmer EnVision microplate reader (λEx=355 nm, λEm=460 nm). Initial velocities (slopes of the tangents at t=0) were estimated from exponential fits to the slightly nonlinear progress curves and then were converted to percent of control (“POC”) using the following equation:
[formula] • Where: Xmax Average Uninhibited Controls • Xmin Average Background A 4-parameter logistic model was the fit to the POC data for each compound. From that fit, the IC50 was estimated and is defined as the concentration of compound at which the curve crosses 50 POC.
The reported IC50 in Table 1 may be from a single assay or the mean of multiple assays.

[1] abbreviates: full-length SHP2 with 1 μM activating peptide, 50 μM DiFMUP, single assay or mean of multiple assays, read-out: Biological Example 1 IC50.

T1 sequence (Q06124 2-527): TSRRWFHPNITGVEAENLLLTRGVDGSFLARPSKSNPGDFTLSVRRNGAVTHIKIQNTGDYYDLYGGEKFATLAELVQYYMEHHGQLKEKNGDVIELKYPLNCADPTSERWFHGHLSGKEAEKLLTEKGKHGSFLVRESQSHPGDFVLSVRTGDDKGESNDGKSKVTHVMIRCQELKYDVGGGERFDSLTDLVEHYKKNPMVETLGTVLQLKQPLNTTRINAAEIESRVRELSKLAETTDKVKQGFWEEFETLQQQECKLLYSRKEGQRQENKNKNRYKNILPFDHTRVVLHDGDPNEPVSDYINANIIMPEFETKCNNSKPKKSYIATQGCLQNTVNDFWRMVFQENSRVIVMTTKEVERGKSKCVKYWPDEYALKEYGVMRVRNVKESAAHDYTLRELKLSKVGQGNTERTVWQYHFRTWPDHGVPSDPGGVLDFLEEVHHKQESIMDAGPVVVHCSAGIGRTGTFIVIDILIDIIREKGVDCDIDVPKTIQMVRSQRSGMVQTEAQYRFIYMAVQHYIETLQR

With `CC1(N)CCN(c2cnc3cc(-c4cccc(Cl)c4Cl)ccc3n2)CC1` [Example 22, 1-(6-(2,3-dichlorophenyl)quinoxalin-2-yl)-4-methylpiperidin-4-amine], under setting [1], the IC50 was determined as 700 nM.

Turning to `Nc1nccc(Sc2ccc3nc(N4CCC5(CC4)c4ccccc4[C@@H]5N)cnc3n2)c1Cl` [Example 166, (R)-1′-(6-((2-amino-3-chloropyridin-4-yl)thio)pyrido[2,3-b]pyrazin-2-yl)spiro[bicyclo[4.2.0]octane-7,4′-piperidine]-1(6),2,4-trien-8-amine], the IC50 is 3990 nM.

`CC1(N)CCN(c2cnc3nc(-c4ccnc(N5CCCC5)c4Cl)ccc3n2)CC1` [Example 19, 1-(6-(3-chloro-2-(pyrrolidin-1-yl)pyridin-4-yl)pyrido[2,3-b]pyrazin-2-yl)-4-methylpiperidin-4-amine]: half-maximal inhibition (IC50) required 1700 nM.

Compound `C[C@@H]1C[C@@H](N)CCN1c1cnc2nc(Sc3ccnc(N)c3Cl)ccc2n1` [Example 122, 4-((2-((2R,4S)-4-amino-2-methylpiperidin-1-yl)pyrido[2,3-b]pyrazin-6-yl)thio)-3-chloropyridin-2-amine dihydrochloride] displayed an IC50 of 64 nM.

For the compound `COc1nccc(Sc2ccc3nc(N4CCC(N)(CO)CC4)cnc3n2)c1Cl` [Example 44, (4-amino-1-(6-((3-chloro-2-methoxypyridin-4-yl)thio)pyrido[2,3-b]pyrazin-2-yl)piperidin-4-yl)methanol], the IC50 amounted to 120 nM.

`NC1(CO)CCN(c2cnc3nc(Sc4cccc(Cl)c4Cl)ccc3n2)CC1` [Example 9, (4-amino-1-(6-((2,3-dichlorophenyl)thio)pyrido[2,3-b]pyrazin-2-yl)piperidin-4-yl)methanol] had a concentration for half-maximal inhibition (IC50) of 62 nM.

`C[C@@H]1OCC2(CCN(c3cnc4nc(Sc5ccnc(NC6CC6)c5Cl)ccc4n3)CC2)[C@@H]1N` [Example 184, (3S,4S)-8-(6-((3-chloro-2-(cyclopropylamino)pyridin-4-yl)thio)pyrido[2,3-b]pyrazin-2-yl)-3-methyl-2-oxa-8-azaspiro[4.5]decan-4-amine] displayed an IC50 of 413 nM.

Compound `Nc1nccc(Sc2ccc3nc(N4C5CCC4CNC5)cnc3n2)c1Cl` [Example 204, 4-((2-(3,8-diazabicyclo[3.2.1]octan-8-yl)pyrido[2,3-b]pyrazin-6-yl)thio)-3-chloropyridin-2-amine] registered an IC50 of 47 nM.

As to `CC1(N)CCN(c2cnc3nc(-c4cccc(Cl)c4Cl)ccc3n2)CC1` [Example 2, 1-(6-(2,3-dichlorophenyl)pyrido[2,3-b]pyrazin-2-yl)-4-methylpiperidin-4-amine], the IC50 under setting [1] turned out to be 93 nM.

In turn, `Nc1nccc(Sc2ccc3nc(N4CCC(N)(Cc5ccccc5)CC4)cnc3n2)c1Cl` [Example 181, 4-((2-(4-amino-4-benzylpiperidin-1-yl)pyrido[2,3-b]pyrazin-6-yl)thio)-3-chloropyridin-2-amine] showed an IC50 of 75 nM.

Turning to `N#Cc1ccc2c(c1)[C@@H](N)C1(CCN(c3cnc4nc(Sc5ccnc(N)c5Cl)ccc4n3)CC1)C2` (single isomer, unassigned) [Example 112], the IC50 turned out to be 33 nM.

In the case of `CNc1nccc(Sc2ccc3nc(N4CCC[C@@](C)(N)CC4)cnc3n2)c1Cl` (single isomer, unassigned) [Example 148], the midpoint of inhibition, the IC50, lay at 93 nM.

In the case of `Nc1nccc(Sc2ccc3nc(N4CCC5(CCCC5N)C4)cnc3n2)c1Cl` (stereo not drawn) [Example 83, 2-(6-((2-amino-3-chloropyridin-4-yl)thio)pyrido[2,3-b]pyrazin-2-yl)-2-azaspiro[4.4]nonan-6-amine], inhibition was half-maximal at 173 nM (IC50).

`CC1(CN)CCN(c2cnc3cc(-c4cccc(Cl)c4Cl)ccc3n2)CC1` [Example 23, (1-(6-(2,3-dichlorophenyl)quinoxalin-2-yl)-4-methylpiperidin-4-yl)methanamine] showed an IC50 of 2500 nM.

For `Cc1nccc(Sc2ccc3nc(N4CCC(C)(N)CC4)cnc3n2)c1Cl` [Example 94, 1-(6-((3-chloro-2-methylpyridin-4-yl)thio)pyrido[2,3-b]pyrazin-2-yl)-4-methylpiperidin-4-amine], the IC50 was determined as 49 nM.

Usually IC50 stands for the concentration needed to halve the response being measured.
